The values below come from publication PMC12064818, “A general assay platform to study protein pharmacology using ligand-dependent structural dynamics” (Nature Communications, 2025).

Structures are written as SMILES.

The test has as its target T1, FLuc-C-HiBiT (Photinus pyralis, UniProt P08659).
T1 construct: firefly luciferase with C-terminal HiBiT tag, E. coli expressed
The test is described as follows: biochemical. The note with it: enzyme activity, 10 uM ATP; read-out: IC50 or SDR50 (mM) / FLuc E.

T1 sequence (P08659 whole entry, looked up): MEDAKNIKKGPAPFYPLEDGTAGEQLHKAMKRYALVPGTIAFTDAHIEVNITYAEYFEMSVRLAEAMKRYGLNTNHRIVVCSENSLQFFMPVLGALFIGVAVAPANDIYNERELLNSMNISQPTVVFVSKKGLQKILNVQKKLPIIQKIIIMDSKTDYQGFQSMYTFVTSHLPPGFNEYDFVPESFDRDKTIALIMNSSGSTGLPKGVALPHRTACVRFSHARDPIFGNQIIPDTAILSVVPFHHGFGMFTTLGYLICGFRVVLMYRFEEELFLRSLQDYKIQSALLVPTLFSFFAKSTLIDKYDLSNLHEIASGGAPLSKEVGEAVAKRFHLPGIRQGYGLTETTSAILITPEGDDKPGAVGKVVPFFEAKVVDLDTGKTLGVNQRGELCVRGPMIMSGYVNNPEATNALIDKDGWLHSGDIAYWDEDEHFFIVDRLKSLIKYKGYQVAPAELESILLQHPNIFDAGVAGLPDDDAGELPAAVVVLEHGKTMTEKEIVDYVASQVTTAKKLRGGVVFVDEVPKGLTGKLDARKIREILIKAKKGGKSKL

With `COc1ccc(C(=O)Nc2ccccc2-c2nc3ccccc3s2)c(OC)c1` [NCGC00135640-01], the IC50 is more than 30 µM.

On to `O=C(Nc1cccnc1)c1nc2c(o1)CCN(Cc1ccc(O)cc1)CC2` [NCGC00413415-01], for which the IC50 is 18 µM.

With `Cc1cccc(-c2nnc(SCCC(=O)O)o2)c1` [NCGC00103138-01], the IC50 was 4.95 µM.

For `Cc1ccccc1-c1ccc(COc2ccc3c(cnn3CCC(=O)O)c2)cc1` [NCGC00418125-01], the IC50 is 16.1 µM.

Take `CCc1cccc(NC(=O)Nc2cccc(-c3ccc(N4CCOCC4)nn3)c2)c1` [NCGC00427616-01]: the IC50 was 6.24 µM.

With `Cc1noc(C)c1CC(=O)N1CCOc2c(cc(-c3nc4ccccc4s3)cc2OC2CCOC2)C1` (stereo not drawn) [NCGC00239833-01], the IC50 is more than 30 µM.

Take `CCc1ccc2nc(N3CCC(C(=O)O)CC3)sc2c1` [NCGC00112332-01]: the IC50 worked out at 0.0351 µM.

As to `Cc1ccc(NC(=O)Nc2ccc(C)n(CC(=O)NC(C)c3cccnc3)c2=O)cc1` (stereo not drawn) [NCGC00430804-01], the IC50 is 1.57 µM.

Regarding `c1cncc(Nc2cc3c(cn2)CN(Cc2cc[nH]n2)CCN3)c1` [NCGC00411048-01], the IC50 stood at 18 µM.

Regarding `O=c1[nH]cnc2c1ncn2[C@H]1CC[C@@H](CO)O1` [NCGC00090691-03], the IC50 was more than 30 µM.

As for `O=C([C@@H]1C[C@@H](O)[C@H](O)[C@@H]2NC(=S)N(c3ccc(OC(F)(F)F)cc3)[C@@H]21)N1CCCCC1` [NCGC00392138-01], the IC50 is more than 30 µM.

Take `Cc1c(-c2ccccc2F)[nH]c2ccc(CNC(=O)C3CCCN(C(N)=O)C3)cc12` (stereo not drawn) [NCGC00429038-01]: the IC50 was found to be 5.56 µM.

Turning to `COc1cccc(C(=O)NCCn2ccn3nc(-c4ccc(C)c(C)c4)cc3c2=O)c1OC` [NCGC00457018-01], the IC50 was 7.85 µM.

As for `CCNC(=O)N1CC(Oc2ccc(-c3nc(-c4ccccc4)no3)cc2)C1` [NCGC00441125-01], the IC50 turned out to be 5.56 µM.

Regarding `COc1ccc(C(=O)Nc2onc3c2CCCC3)cc1` [NCGC00115906-01], the IC50 came to 1.97 µM.

`COc1ccc(-c2cc3c(=O)n(CCNC(=O)Cc4cccs4)ccn3n2)cc1` [NCGC00456924-01]: the IC50 is 9.89 µM.

With `COc1ccc(NC(=O)Nc2cccc(-c3ccc(N4CCOCC4)nn3)c2)cc1` [NCGC00427572-01], the IC50 amounted to 1.76 µM.

In the case of `COc1ccc(-c2cc(N3CCCC(NC(=O)c4ccc5ncccc5c4)C3)[nH]n2)cc1` (stereo not drawn) [NCGC00437712-01], the IC50 turned out to be 3.94 µM.

For the compound `O=C1c2cnc(-c3ccc(F)cc3F)nc2OCCN1CC1CC1` [NCGC00413656-01], the IC50 is 18 µM.

Regarding `Cc1ccc2[nH]c([C@H]3CCN(Cc4cccs4)C3)nc2c1` [NCGC00397946-01], the IC50 was found to be 20.2 µM.

`O=C(c1ccccc1C(F)(F)F)N1CCOc2c(cc(-c3nc4ccccc4s3)cc2OC2CCOC2)C1` (stereo not drawn) [NCGC00240022-01]: the IC50 was more than 30 µM.

For `O=C(O)CCSc1nnc(-c2ccc(Cl)cc2Cl)o1` [NCGC00103142-01], the IC50 came to 0.495 µM.

Consider `COc1ccc(-c2nc3ccccc3s2)cc1NC(=O)COc1cccc(C)c1` [NCGC00102101-01], for which the IC50 is more than 30 µM.

As to `CC(=O)Nc1cccc(C(=O)NCCn2ccn3nc(-c4ccc(C)cc4C)cc3c2=O)c1` [NCGC00456962-01], the IC50 amounted to 9.89 µM.

On to `CCOCC1(C)COc2ccc(C(=O)Nc3ccc(Cl)cc3)cc2N1` (stereo not drawn) [NCGC00416138-01], for which the IC50 was 18 µM.

In the case of `COc1ccc(OCc2cc(C(=O)N3C[C@H]4CC[C@H]3C4)n[nH]2)c(Cl)c1` [NCGC00428264-01], the IC50 is more than 30 µM.

As to `OC1CCCN(c2ccc(-c3nc(-c4cccc(C(F)(F)F)c4)no3)cn2)C1` (stereo not drawn) [NCGC00441254-01], the IC50 came out at 5.56 µM.

`O=C(Nc1ccccc1)c1nc2c(o1)CCN(Cc1ccccn1)CC2` [NCGC00413398-01]: the IC50 turned out to be 18 µM.

Turning to `COc1ccc2cc(C3CN(C(=O)CNC(=O)C(C)C)CCO3)ccc2c1` (stereo not drawn) [NCGC00430625-01], the IC50 was 12.4 µM.

In the case of `O=C(O)c1ccccc1-c1nc2ccccc2s1` [NCGC00645508-01], the IC50 is more than 30 µM.

As for `COc1cc(F)ccc1-c1ccc(COc2ccc3c(cnn3CCC(=O)O)c2)cc1` [NCGC00418071-01], the IC50 turned out to be 18 µM.

Turning to `COc1ccc(-c2noc([C@@H]3Cc4[nH]cnc4CN3C(=O)Nc3ccc(Cl)cc3)n2)cc1` [NCGC00401634-01], the IC50 was more than 30 µM.

Turning to `O=C(Nc1ccccc1-c1nc2ccccc2s1)c1cc(Cl)cc(Cl)c1` [NCGC00135642-01], the IC50 was more than 30 µM.

As for `CCn1cc(-c2ccc(F)cc2)cc1C(=O)O` [NCGC00432651-01], the IC50 was more than 30 µM.

Regarding `Fc1ccc(-n2ncc3c(N4CCC(Cc5ccccc5)CC4)ncnc32)cc1` [NCGC00139053-01], the IC50 is more than 30 µM.

With `Oc1ccc(-c2nc3ccccn3c2Nc2ccc3c(c2)OCCO3)cc1` [NCGC00106600-01], the IC50 was determined as 17.6 µM.

For the compound `CC(=O)NC1(C)CN(Cc2ccc(-c3ccc4c(ccn4C)c3)s2)C1` [NCGC00410429-01], the IC50 stood at 2.86 µM.

On to `COc1ccc(CN2C[C@H](O)C[C@H]2c2nc(-c3ccc(OC)cc3)no2)cc1` [NCGC00400669-01], for which the IC50 amounted to 14.3 µM.

Consider `C[C@@H]1C(=O)O[C@H]2[C@H]1CC[C@@]1(C)Cc3sc(Nc4cccnc4)nc3[C@@H](C)[C@H]21` [NCGC00421621-01], for which the IC50 stood at 0.453 µM.

For the compound `Cc1ccc(-c2cccc(COc3cnc4c(ccn4CC(=O)O)c3)c2)cc1C` [NCGC00418247-01], the IC50 came out at 18 µM.

With `CCCOC(=O)CSc1ncnc2sc3c(c12)CCC(C)C3` (stereo not drawn) [NCGC00100112-01], the IC50 came out at 11.1 µM.

Consider `Cc1ccc(C(=O)Nc2ccccc2C(=O)O)cc1[S+](=O)([O-])N1CCCCCC1` [NCGC00098472-01], for which the IC50 amounted to 2.79 µM.

Regarding `Cc1cc(CNC(=O)C2(C(N)=O)CC2)c2[nH]c(-c3ccccc3)c(C)c2c1` [NCGC00426839-01], the IC50 came to 11.1 µM.

`CCOc1ccc(C(=O)Nc2ccc(-c3nc4ccccc4s3)cc2)cc1[N+](=O)[O-]` [NCGC00188053-01]: the IC50 is more than 30 µM.

With `CCC(C(=O)NCCn1ccn2nc(-c3ccc(OC)cc3)cc2c1=O)c1ccccc1` (stereo not drawn) [NCGC00456905-01], the IC50 was found to be 11.1 µM.

With `CNc1ccc2cc(-c3nc4ccc(C(=O)O)cc4s3)ccc2c1` [NCGC00655706-01], the IC50 is 0.007 µM.

Regarding `Cn1cc(/C=C2\C(=O)Nc3cccnc32)c2ccccc21` [NCGC00161398-03], the IC50 stood at 9.89 µM.

With `CCOP(=O)(Cc1ccc(-c2nc3ccccc3s2)cc1)OCC` [NCGC00538319-01], the IC50 is 11.1 µM.

On to `Clc1cccc(Nc2cc3c(cn2)CN(Cc2cccnc2)CCN3)c1` [NCGC00411094-01], for which the IC50 worked out at 12.8 µM.

Consider `O=C(O)c1ccc(-c2noc(-c3cccc(Cl)c3)n2)cc1` [NCGC00168100-03], for which the IC50 was 7 µM.

On to `COCCOc1nc(N)c2[nH]c(=O)n(Cc3ccc(C(=O)O)cc3)c2n1` [NCGC00480851-01], for which the IC50 was more than 30 µM.

On to `O=C(Nc1ccccc1C(=O)O)c1cccc([S+](=O)([O-])N2CCCC2)c1` [NCGC00098464-01], for which the IC50 stood at 12.4 µM.

Consider `O=C(Nc1cccc(-c2ccc(N3CCOCC3)nn2)c1)Nc1cccc(C(F)(F)F)c1` [NCGC00427594-01], for which the IC50 was 4.95 µM.

On to `O=C(c1ccc(CSc2nc3ccncc3n2Cc2ccccc2F)cc1)N1CCCCC1` [NCGC00113496-01], for which the IC50 stood at 14 µM.

For the compound `COc1ccc(OCC(=O)Nc2cc(-c3nc4ccccc4s3)ccc2C)cc1` [NCGC00098594-01], the IC50 came to 12.4 µM.

Turning to `COc1cccc(CC(=O)Nc2ccc(-c3nc4ccccc4s3)cc2Cl)c1` [NCGC00137806-01], the IC50 is more than 30 µM.

For the compound `COc1ccccc1NC(=O)CN1C(=O)CC(c2ccc(C)c(C)c2)=Nc2ccccc21` [NCGC00130405-01], the IC50 came out at 12.4 µM.

Turning to `c1ccc(Nc2ncc(-c3ccccc3)o2)cc1` [NCGC00242146-02], the IC50 was 0.785 µM.

On to `CC(=O)Oc1ccccc1C(=O)Nc1ccc(-c2nc3ccc(C)cc3s2)cc1` [NCGC00596510-01], for which the IC50 was determined as 8.81 µM.

As for `Cn1ccnc1C(O)c1cc2n(n1)CCN(c1ncnc3[nH]cnc13)C2` (stereo not drawn) [NCGC00422809-01], the IC50 was more than 30 µM.

For `Cc1ccc(C2Cn3nnc(C(=O)N4CCC(C(=O)NCCc5cccs5)CC4)c3CO2)cc1` (stereo not drawn) [NCGC00449541-01], the IC50 amounted to 9.89 µM.

Regarding `COc1ccccc1-c1nc(-c2ccc(C(=O)O)cc2)no1` [NCGC00168102-02], the IC50 came to 1.97 µM.

Consider `COCCNC(=O)C1CCN(C(=O)c2nnn3c2COC(c2ccc(C)cc2)C3)CC1` (stereo not drawn) [NCGC00449559-01], for which the IC50 came to 4.95 µM.

As for `COc1ccccc1-c1noc(-c2ccc(N3CCN(C)CC3)c([N+](=O)[O-])c2)n1` [NCGC00119222-01], the IC50 stood at 4.95 µM.

As to `CC(Cc1cnccn1)Nc1ccc(-c2nc(-c3cccc(Cl)c3)no2)cn1` (stereo not drawn) [NCGC00425352-01], the IC50 amounted to 11.1 µM.

As for `Cc1cc(C)cc(OCC(=O)Nc2ccc(-c3nc4ccccc4s3)cc2)c1` [NCGC00119151-01], the IC50 was more than 30 µM.

`CCNc1cc(N2CCC(CCC(=O)Nc3ccc4c(c3)OCCO4)CC2)ncn1` [NCGC00470231-01]: the IC50 was 12.4 µM.

`CC1CCCN(c2ncnc3c2cnn3-c2ccc(Cl)cc2)C1` (stereo not drawn) [NCGC00081383-02]: the IC50 came to 0.124 µM.

As for `Cc1ccc(-n2ncc3c(N(C)C)ncnc32)cc1Cl` [NCGC00139189-01], the IC50 was determined as 2.21 µM.

Take `CC(C)CCNC(=O)c1ccc2c(c1)nc1n2CCCCC1` [NCGC00133608-01]: the IC50 is 9.89 µM.

Take `CN(C)c1cccc(C(=O)NC2CCN(c3cc(-c4ccccc4)n[nH]3)C2)c1` (stereo not drawn) [NCGC00437846-01]: the IC50 is 7 µM.

Consider `COc1ccc(-c2cc3c(=O)n(CCNC(=O)c4c(F)cccc4F)ccn3n2)cc1` [NCGC00456908-01], for which the IC50 came out at 4.95 µM.

In the case of `CCN1CCN(C(=O)Cn2c(C)ccc(NC(=O)Nc3ccc(C)cc3)c2=O)CC1` [NCGC00430774-01], the IC50 is 4.95 µM.

As for `COc1ccc(N2CCN(C(=O)Cn3cccc3-c3nc(-c4ccc5c(c4)OCO5)no3)CC2)cc1` [NCGC00445315-01], the IC50 was more than 30 µM.

On to `O=C1c2cnc(-c3ccc(F)cc3)nc2OCCN1CC1CC1` [NCGC00413585-01], for which the IC50 was 14.3 µM.
